Results taken from PubChem BioAssay (NCI).
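The compound was tested at five concentrations on cells cultured in 96-well plates, with a 48-hour exposure period. TGI: concentration producing complete growth inhibition.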

Legend:
Test in all cases: NCI-60 cell line screen, 48 h
HCT-15 colon = test system: HCT-15 colon
COLO 205 colon = test system: COLO 205 colon
M14 melanoma = test system: M14 melanoma
SK-MEL-28 melanoma = test system: SK-MEL-28 melanoma
SF-268 CNS = test system: SF-268 CNS
SF-295 CNS = test system: SF-295 CNS
K-562 leukemia = test system: K-562 leukemia
NCI-H23 lung = test system: NCI-H23 lung
SK-MEL-2 melanoma = test system: SK-MEL-2 melanoma
OVCAR-8 ovarian = test system: OVCAR-8 ovarian
KM12 colon = test system: KM12 colon
LOX IMVI melanoma = test system: LOX IMVI melanoma
CAKI-1 renal = test system: CAKI-1 renal
SNB-19 CNS = test system: SNB-19 CNS
EKVX NSCLC = test system: EKVX NSCLC
MDA-MB-435 = test system: MDA-MB-435
TK-10 renal = test system: TK-10 renal
RPMI-8226 leukemia = test system: RPMI-8226 leukemia
HT29 colon = test system: HT29 colon
UACC-257 melanoma = test system: UACC-257 melanoma
SK-MEL-5 melanoma = test system: SK-MEL-5 melanoma
HOP-62 NSCLC = test system: HOP-62 NSCLC
A549 NSCLC = test system: A549 NSCLC
U251 CNS = test system: U251 CNS
UACC-62 melanoma = test system: UACC-62 melanoma
SW-620 colon = test system: SW-620 colon
UO-31 renal = test system: UO-31 renal
SF-539 CNS = test system: SF-539 CNS
MOLT-4 leukemia = test system: MOLT-4 leukemia
ACHN renal = test system: ACHN renal
SNB-75 CNS = test system: SNB-75 CNS
HS 578T breast = test system: HS 578T breast
OVCAR-3 ovarian = test system: OVCAR-3 ovarian
HL-60(TB) leukemia = test system: HL-60(TB) leukemia
CCRF-CEM leukemia = test system: CCRF-CEM leukemia
MALME-3M melanoma = test system: MALME-3M melanoma
MDA-MB-231 breast = test system: MDA-MB-231 breast
MCF7 breast = test system: MCF7 breast
NCI-H460 lung = test system: NCI-H460 lung
PC-3 prostate = test system: PC-3 prostate
IGROV1 ovarian = test system: IGROV1 ovarian
786-0 renal = test system: 786-0 renal
DU-145 prostate = test system: DU-145 prostate
OVCAR-4 ovarian = test system: OVCAR-4 ovarian
HCC-2998 colon = test system: HCC-2998 colon
A498 renal = test system: A498 renal
MDA-N = test system: MDA-N
T-47D breast = test system: T-47D breast
BT-549 breast = test system: BT-549 breast
SN12C renal = test system: SN12C renal
OVCAR-5 ovarian = test system: OVCAR-5 ovarian
NCI-H226 lung = test system: NCI-H226 lung
HCT-116 colon = test system: HCT-116 colon
SR leukemia = test system: SR leukemia
RXF 393 renal = test system: RXF 393 renal
HOP-92 NSCLC = test system: HOP-92 NSCLC
NCI-H522 lung = test system: NCI-H522 lung

Cc1ncc([N+](=O)[O-])n1CCNC(=O)CCCn1ccnc1[N+](=O)[O-]
TGI (HCT-15 colon): > 100 µM
TGI (COLO 205 colon): > 100 µM
TGI (M14 melanoma): > 100 µM
TGI (SK-MEL-28 melanoma): > 100 µM
TGI (SF-268 CNS): > 100 µM
TGI (SF-295 CNS): > 100 µM
TGI (K-562 leukemia): > 100 µM
TGI (NCI-H23 lung): > 100 µM
TGI (SK-MEL-2 melanoma): > 100 µM
TGI (OVCAR-8 ovarian): > 100 µM
TGI (KM12 colon): > 100 µM
TGI (LOX IMVI melanoma): > 100 µM
TGI (CAKI-1 renal): > 100 µM
TGI (SNB-19 CNS): > 100 µM
TGI (EKVX NSCLC): > 100 µM
TGI (MDA-MB-435): > 100 µM
TGI (TK-10 renal): > 100 µM
TGI (RPMI-8226 leukemia): > 100 µM
TGI (HT29 colon): > 100 µM
TGI (UACC-257 melanoma): > 100 µM
TGI (SK-MEL-5 melanoma): > 100 µM
TGI (HOP-62 NSCLC): > 100 µM
TGI (A549 NSCLC): > 100 µM
TGI (U251 CNS): > 100 µM
TGI (UACC-62 melanoma): > 100 µM
TGI (SW-620 colon): > 100 µM
TGI (UO-31 renal): > 100 µM
TGI (SF-539 CNS): > 100 µM
TGI (MOLT-4 leukemia): > 100 µM
TGI (ACHN renal): > 100 µM
TGI (SNB-75 CNS): > 100 µM
TGI (HS 578T breast): > 100 µM
TGI (OVCAR-3 ovarian): > 100 µM
TGI (HL-60(TB) leukemia): > 100 µM
TGI (CCRF-CEM leukemia): > 100 µM
TGI (MALME-3M melanoma): > 100 µM
TGI (MDA-MB-231 breast): > 100 µM
TGI (MCF7 breast): > 100 µM
TGI (NCI-H460 lung): > 100 µM
TGI (PC-3 prostate): > 100 µM
TGI (IGROV1 ovarian): > 100 µM
TGI (786-0 renal): > 100 µM
TGI (DU-145 prostate): > 100 µM
TGI (OVCAR-4 ovarian): > 100 µM
TGI (HCC-2998 colon): > 100 µM
TGI (A498 renal): > 100 µM
TGI (MDA-N): > 100 µM
TGI (T-47D breast): > 100 µM
TGI (BT-549 breast): > 100 µM
TGI (SN12C renal): > 100 µM
TGI (OVCAR-5 ovarian): > 100 µM
TGI (NCI-H226 lung): > 100 µM
TGI (HCT-116 colon): > 100 µM
TGI (SR leukemia): > 100 µM
TGI (RXF 393 renal): > 100 µM

CCOC(=O)C1(C)CCc2sc(N)c(C#N)c21 (stereo not drawn)
TGI (HCT-15 colon): > 100 µM
TGI (COLO 205 colon): > 100 µM
TGI (M14 melanoma): > 100 µM
TGI (SK-MEL-28 melanoma): > 100 µM
TGI (K-562 leukemia): > 100 µM
TGI (NCI-H23 lung): > 100 µM
TGI (SK-MEL-2 melanoma): > 100 µM
TGI (OVCAR-8 ovarian): > 100 µM
TGI (KM12 colon): > 100 µM
TGI (SNB-19 CNS): > 100 µM
TGI (EKVX NSCLC): > 100 µM
TGI (TK-10 renal): > 100 µM
TGI (RPMI-8226 leukemia): > 100 µM
TGI (HT29 colon): > 100 µM
TGI (UACC-257 melanoma): > 100 µM
TGI (SK-MEL-5 melanoma): > 100 µM
TGI (HOP-62 NSCLC): > 100 µM
TGI (A549 NSCLC): > 100 µM
TGI (U251 CNS): > 100 µM
TGI (UACC-62 melanoma): > 100 µM
TGI (SW-620 colon): > 100 µM
TGI (UO-31 renal): > 100 µM
TGI (HOP-92 NSCLC): > 100 µM
TGI (MOLT-4 leukemia): > 100 µM
TGI (ACHN renal): > 100 µM
TGI (SNB-75 CNS): > 100 µM
TGI (HS 578T breast): > 100 µM
TGI (HL-60(TB) leukemia): > 100 µM
TGI (CCRF-CEM leukemia): > 100 µM
TGI (MALME-3M melanoma): > 100 µM
TGI (MDA-MB-231 breast): > 100 µM
TGI (MCF7 breast): > 100 µM
TGI (NCI-H460 lung): > 100 µM
TGI (PC-3 prostate): > 100 µM
TGI (IGROV1 ovarian): > 100 µM
TGI (786-0 renal): > 100 µM
TGI (HCC-2998 colon): > 100 µM
TGI (A498 renal): > 100 µM
TGI (MDA-N): > 100 µM
TGI (T-47D breast): > 100 µM
TGI (BT-549 breast): > 100 µM
TGI (SN12C renal): > 100 µM
TGI (OVCAR-5 ovarian): > 100 µM
TGI (NCI-H226 lung): > 100 µM
TGI (HCT-116 colon): > 100 µM
TGI (RXF 393 renal): > 100 µM

O=C(c1cc(Cl)ccc1Cl)N1CCN(c2cccc(Cl)c2)CC1
TGI (HCT-15 colon): > 100 µM
TGI (M14 melanoma): > 100 µM
TGI (SK-MEL-28 melanoma): 81.9 µM
TGI (SF-268 CNS): > 100 µM
TGI (SF-295 CNS): 25.6 µM
TGI (K-562 leukemia): 16.2 µM
TGI (NCI-H23 lung): > 100 µM
TGI (OVCAR-8 ovarian): 38.9 µM
TGI (KM12 colon): 20 µM
TGI (LOX IMVI melanoma): 25.5 µM
TGI (CAKI-1 renal): > 100 µM
TGI (SNB-19 CNS): > 100 µM
TGI (EKVX NSCLC): 96.5 µM
TGI (TK-10 renal): > 100 µM
TGI (RPMI-8226 leukemia): > 100 µM
TGI (HT29 colon): 27.1 µM
TGI (UACC-257 melanoma): 50.3 µM
TGI (SK-MEL-5 melanoma): 19.3 µM
TGI (HOP-62 NSCLC): 61.5 µM
TGI (A549 NSCLC): 42.6 µM
TGI (U251 CNS): 62 µM
TGI (SW-620 colon): 94.8 µM
TGI (UO-31 renal): 58.9 µM
TGI (SF-539 CNS): 31.4 µM
TGI (MOLT-4 leukemia): 37 µM
TGI (ACHN renal): 76.5 µM
TGI (SNB-75 CNS): > 100 µM
TGI (HS 578T breast): 65.8 µM
TGI (OVCAR-3 ovarian): 38 µM
TGI (HL-60(TB) leukemia): > 100 µM
TGI (CCRF-CEM leukemia): 59.7 µM
TGI (NCI-H522 lung): 30.4 µM
TGI (MALME-3M melanoma): 28.6 µM
TGI (MDA-MB-231 breast): 20.3 µM
TGI (MCF7 breast): > 100 µM
TGI (NCI-H460 lung): 31.5 µM
TGI (PC-3 prostate): 6.22 µM
TGI (IGROV1 ovarian): 56.8 µM
TGI (786-0 renal): 34 µM
TGI (DU-145 prostate): > 100 µM
TGI (OVCAR-4 ovarian): > 100 µM
TGI (HCC-2998 colon): 39.5 µM
TGI (A498 renal): 34.8 µM
TGI (MDA-N): 5.62 µM
TGI (T-47D breast): > 100 µM
TGI (BT-549 breast): 23.1 µM
TGI (SN12C renal): 20.2 µM
TGI (OVCAR-5 ovarian): > 100 µM
TGI (NCI-H226 lung): 42.6 µM
TGI (HCT-116 colon): 24.1 µM
TGI (SR leukemia): > 100 µM
TGI (RXF 393 renal): 27.5 µM
